Where “and” joins values, the source holds several entries; their conditions need not be identical. Equal values may be shown once. Toxic doses and inconclusive results are not listed. Rule as the data show it: active = T/C of 150% or more; inactive = T/C below 125%.
Tested on: L1210 leukemia ip in BDF1 mice, survival T/C
Test: NCI In Vivo Anticancer Drug Screen. Data for tumor model L1210 Leukemia (intraperitoneal) in B6D2F1 (BDF1) mice
Conditions: endpoint: mean survival time, higher = longer survival
How it was run: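 Mice bearing the transplanted tumor received compound or vehicle. Survival of the treated group was divided by that of the vehicle-treated control group to give the ratio.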

[1] = dose: 100.0 mg/kg/injection, schedule: Q01DX001 (ip), vehicle: saline
[2] = dose: 100.0 mg/kg/injection, schedule: Q04DX003 (ip), vehicle: saline
[3] = dose: 200.0 mg/kg/injection, schedule: Q01DX001 (ip), vehicle: saline
[4] = dose: 200.0 mg/kg/injection, schedule: Q04DX003 (ip), vehicle: saline
[5] = dose: 400.0 mg/kg/injection, schedule: Q01DX009 (ip), vehicle: saline with Tween-80
[6] = dose: 400.0 mg/kg/injection, schedule: Q04DX003 (ip), vehicle: saline
[7] = dose: 100.0 mg/kg/injection, schedule: Q01DX009 (ip), vehicle: saline with Tween-80
[8] = dose: 100.0 mg/kg/injection, schedule: Q04DX003 (ip), vehicle: saline with Tween-80
[9] = dose: 200.0 mg/kg/injection, schedule: Q01DX009 (ip), vehicle: saline with Tween-80
[10] = dose: 200.0 mg/kg/injection, schedule: Q04DX003 (ip), vehicle: saline with Tween-80
[11] = dose: 400.0 mg/kg/injection, schedule: Q04DX003 (ip), vehicle: saline with Tween-80

Measured: T/C

COc1cc(C)oc(=O)c1
inactive: dose: 100.0 mg/kg/injection, schedule: Q01DX001 (ip), vehicle: Klucel (hydroxypropylcellulose) (HPC) 110 % of control | [1] 98 % of control | dose: 100.0 mg/kg/injection, schedule: Q01DX009 (ip), vehicle: saline 93 % of control and 101 % of control | [2] 97 % of control | dose: 200.0 mg/kg/injection, schedule: Q01DX001 (ip), vehicle: Klucel (hydroxypropylcellulose) (HPC) 104 % of control | [3] 98 % of control | dose: 200.0 mg/kg/injection, schedule: Q01DX009 (ip), vehicle: saline 93 % of control and 104 % of control | [4] 93 % of control | dose: 400.0 mg/kg/injection, schedule: Q01DX001 (ip), vehicle: Klucel (hydroxypropylcellulose) (HPC) 106 % of control | dose: 400.0 mg/kg/injection, schedule: Q01DX001 (ip), vehicle: saline 102 % of control | [5] 108 % of control | dose: 400.0 mg/kg/injection, schedule: Q01DX009 (ip), vehicle: saline 93 % of control | [6] 92 % of control

CCNC(=S)NCC
inactive: dose: 100.0 mg/kg/injection, schedule: Q04DX003 (ip), vehicle: carboxymethylcellulose (CMC) 98 % of control | dose: 200.0 mg/kg/injection, schedule: Q04DX003 (ip), vehicle: carboxymethylcellulose (CMC) 102 % of control | dose: 400.0 mg/kg/injection, schedule: Q04DX003 (ip), vehicle: carboxymethylcellulose (CMC) 107 % of control

CC(=O)OCC1OC(OC2=C(c3ccccc3)C(=O)C(OC3OC(COC(C)=O)C(OC(C)=O)C(OC(C)=O)C3OC(C)=O)=C(c3ccccc3)C2=O)C(OC(C)=O)C(OC(C)=O)C1OC(C)=O (configuration not stated)
inactive: dose: 100.0 mg/kg/injection, schedule: Q04DX002 (ip), vehicle: saline with Tween-80 91 % of control | dose: 200.0 mg/kg/injection, schedule: Q04DX002 (ip), vehicle: saline with Tween-80 91 % of control | dose: 400.0 mg/kg/injection, schedule: Q04DX002 (ip), vehicle: saline with Tween-80 95 % of control

COc1cc2cc[n+]3c(C)c4cc5c(cc4cc3c2cc1OC)OCO5 (tested in a mixture with another compound)
inactive: dose: 2.5 mg/kg/injection, schedule: Q01DX009 (ip), vehicle: saline 109 % of control | dose: 5.0 mg/kg/injection, schedule: Q01DX009 (ip), vehicle: saline 103 % of control | dose: 50.0 mg/kg/injection, schedule: Q01DX009 (ip), vehicle: saline 97 % of control

OC(CNc1ccnc2cc(Cl)ccc12)CNC1CCCCC1 (configuration not stated)
inactive: dose: 75.0 mg/kg/injection, schedule: Q01DX001 (ip), vehicle: other 97 % of control

CCCCCCOC(=O)C[n+]1cccc(C(N)=O)c1
inactive: [2] 95 % of control

CCN(CC)C(=O)c1ccccc1
inactive: [2] 103 % of control | [4] 110 % of control | [6] 105 % of control

S=c1nc(COc2ccccc2Cl)[nH][nH]1
inactive: dose: 50.0 mg/kg/injection, schedule: Q01DX009 (ip), vehicle: saline with Tween-80 106 % of control | [7] 100 % of control | [8] 98 % of control | [9] 97 % of control | [10] 102 % of control | [5] 98 % of control | [11] 96 % of control

NC(N)=N/N=C\c1cccc(OCc2ccccc2)c1
inactive: dose: 15.0 mg/kg/injection, schedule: Q01DX Z (oral), vehicle: saline 94 % of control | dose: 30.0 mg/kg/injection, schedule: Q01DX Z (oral), vehicle: saline 89 % of control | dose: 60.0 mg/kg/injection, schedule: Q01DX Z (oral), vehicle: saline 93 % of control | dose: 120.0 mg/kg/injection, schedule: Q01DX Z (oral), vehicle: saline 94 % of control

O=C(/C=C/c1ccccc1)N/N=C/c1ccncc1
inactive: dose: 100.0 mg/kg/injection, schedule: Q04DX002 (ip), vehicle: saline 91 % of control | dose: 200.0 mg/kg/injection, schedule: Q04DX002 (ip), vehicle: saline 108 % of control | dose: 400.0 mg/kg/injection, schedule: Q04DX002 (ip), vehicle: saline 112 % of control

Cc1ccc(-c2csc(NC(=O)CC(=O)N/N=C/c3ccc(N(CCCl)CCCl)cc3C)n2)cc1
inactive: dose: 100.0 mg/kg/injection, schedule: Q01DX001 (ip), vehicle: carboxymethylcellulose (CMC) 112 % of control | dose: 200.0 mg/kg/injection, schedule: Q01DX001 (ip), vehicle: carboxymethylcellulose (CMC) 88 % of control | dose: 400.0 mg/kg/injection, schedule: Q01DX001 (ip), vehicle: carboxymethylcellulose (CMC) 93 % of control

O=C(O)CC(CC(=O)O)c1cccc([N+](=O)[O-])c1
inactive: dose: 100.0 mg/kg/injection, schedule: Q01DX001 (ip), vehicle: acetone 96 % of control | dose: 200.0 mg/kg/injection, schedule: Q01DX001 (ip), vehicle: acetone 98 % of control | dose: 400.0 mg/kg/injection, schedule: Q01DX001 (ip), vehicle: acetone 98 % of control

Cc1ccc(S(=O)(=O)OC[C@H]2CC=CC[C@H]2COS(=O)(=O)c2ccc(C)cc2)cc1
inactive: dose: 75.0 mg/kg/injection, schedule: Q01DX009 (ip), vehicle: saline with Tween-80 91 % of control | dose: 100.0 mg/kg/injection, schedule: Q01DX009 (ip), vehicle: DMSO 95 % of control | dose: 100.0 mg/kg/injection, schedule: Q04DX003 (ip), vehicle: DMSO 86 % of control | [8] 88 % of control | dose: 150.0 mg/kg/injection, schedule: Q01DX009 (ip), vehicle: saline with Tween-80 107 % of control | dose: 200.0 mg/kg/injection, schedule: Q01DX009 (ip), vehicle: DMSO 101 % of control | dose: 200.0 mg/kg/injection, schedule: Q04DX003 (ip), vehicle: DMSO 86 % of control | [10] 86 % of control | dose: 300.0 mg/kg/injection, schedule: Q01DX009 (ip), vehicle: saline with Tween-80 101 % of control | dose: 400.0 mg/kg/injection, schedule: Q04DX003 (ip), vehicle: DMSO 88 % of control

CC(=O)C1CCCCC1
inactive: [8] 107 % of control | [10] 109 % of control | [11] 96 % of control

[Cl][Zn][Cl].[NH-]CCN1CC1.[NH-]CCN1CC1
inactive: dose: 10.0 mg/kg/injection, schedule: Q01DX009 (ip), vehicle: saline 108 % of control | dose: 20.0 mg/kg/injection, schedule: Q01DX009 (ip), vehicle: saline 111 % of control | dose: 20.0 mg/kg/injection, schedule: Q04DX003 (ip), vehicle: saline 104 % of control | dose: 40.0 mg/kg/injection, schedule: Q01DX009 (ip), vehicle: saline 93 % of control | dose: 40.0 mg/kg/injection, schedule: Q04DX003 (ip), vehicle: saline 102 % of control

COC(=O)C(N)CSCc1ccccc1 (configuration not stated)
inactive: [2] 87 % of control | [4] 89 % of control | [6] 94 % of control

O=C(CCc1ccc(O)cc1)N/N=C/c1ccc2c(c1)OCO2
inactive: [9] 97 % of control | [5] 87 % of control

COc1cc(-c2nc3ccccc3c(=O)o2)cc(OC)c1OC
inactive: [7] 105 % of control | [8] 103 % of control | [9] 91 % of control | [10] 89 % of control | [11] 97 % of control

O=[N+]([O-])c1ccc(S(=O)(=O)CCCl)cc1
inactive: dose: 50.0 mg/kg/injection, schedule: Q01DX009 (ip), vehicle: Klucel (hydroxypropylcellulose) (HPC) 100 % of control | dose: 100.0 mg/kg/injection, schedule: Q01DX009 (ip), vehicle: Klucel (hydroxypropylcellulose) (HPC) 91 % of control

Clc1ccc(-n2cnnn2)cc1
inactive: [1] 98 % of control | [3] 98 % of control

CC[N+](C)(CC)CCN1c2ccccc2Sc2ccccc21
inactive: dose: 12.5 mg/kg/injection, schedule: Q04DX003 (ip), vehicle: saline 91 % of control | dose: 25.0 mg/kg/injection, schedule: Q04DX003 (ip), vehicle: saline 94 % of control and 86 % of control | dose: 50.0 mg/kg/injection, schedule: Q04DX003 (ip), vehicle: saline 86 % of control and 88 % of control
